33 sequences from paper PMC8541546, “Identification of HLA-A2-Restricted Mutant Epitopes from Neoantigens of Esophageal Squamous Cell Carcinoma” (Vaccines, 2021) can be followed below.

One data set deals with T1, HLA-A*0201 molecule (Homo sapiens, UniProt P04439, D140Y/D185E/D98H/E176V/E277Q/G131W/G231S/I119V/I121R/I166T/I218V/L300P/L318F/N151K/N90K/P208A/P217A/Q86G/Q94H/R138H/R169H/T345S).
T1 construct: T2A2 cells (TAP-deficient HLA-A2 molecules overexpressing, cultured in IMDM medium); host or cells: T2A2 cells
Description: T2A2 cell-binding assay. The following applies: T2A2 cells; FI = (MFI of peptide - MFI of control without peptide)/MFI of control without peptide; anti-HLA-A2 BB7.2, flow cytometry; FI > 1 = high binding affinity. The protocol: The binding affinity of neoepitope to the MHC molecule and the stable neoepitope/MHC complex are critical for inducing T cell immune response, so we first performed a T2A2 cell-binding assay and stabilization assay. The T2A2 cell-binding assay was measured as in our previous study. The binding affinity was computed as follows: fluorescence index (FI) = (mean fluorescence intensity (MFI) of peptide group-MFI of the dissolved buffer without peptide group)/MFI of the dissolved buffer without peptide group.

Data set [1] deals with T2, peptide/HLA-A*0201 complex (Homo sapiens, UniProt P04439, D140Y/D185E/D98H/E176V/E277Q/G131W/G231S/I119V/I121R/I166T/I218V/L300P/L318F/N151K/N90K/P208A/P217A/Q86G/Q94H/R138H/R169H/T345S).
T2 construct: T2A2 cells (TAP-deficient HLA-A2 molecules overexpressing, cultured in IMDM medium); β2-M from Merck; host or cells: T2A2 cells
The experiment in a line: peptide/MHC complex stabilization assay on T2A2 cells. It is filed as binding. Conditions: T2A2 cells pulsed with 50 μg/mL peptide and 3 μg/mL β2-M 18 h, BFA 1 h; MFI at 0, 2, 4, 6 h; time of half losing MFI of 0 h. The procedure:
For the stabilization test, T2A2 cells were pulsed with 50 μg/mL mutant peptide and 3 μg/mL β2-Microglobulin (β2-M, Merck, Kenilworth, NJ, USA) in IMDM (serum-free) medium for 18 h. After three times washing, free peptides were removed and brefeldin A (BFA, 10 μg/mL, BD Bioscience, San Diego, CA, USA) was added. BFA was removed after 1 h impeding, and the cells were incubated for additional time. Finally, T2A2 was marked with anti-human HLA-A2 PE-Cyanine7 for 30 min, then analyzed by FACS Calibur (BD Bioscience, USA). MFI of 0 h was set as 100%, and the time of half losing MFI of 0 h defined the dissociation complex 50 (DC50). DC50 was computed as follows: (MFI of 0 h-MFI of (2, 4, or 6 h))/MFI of 0 h × 100%.

Data set [2] deals with peptide-pulsed T2A2 cells. Description: IFN-γ intracellular staining of peptide-induced T cells from donor PBMCs. The data set is classed as cell-based, human. Conditions: PBMCs of HLA-A2+ donors B–F, DCs pulsed with 10 μg/mL peptide, three rounds. The procedure: (§1) DCs involve and play an important role in initiating CD8^+ T cell response. Consequently, ten HLA-A2^+ healthy donors’ PBMCs were isolated, autologous DCs were generated, and CTLs were induced according to the procedure described previously. In brief, PBMCs were seeded at a density of 5 × 10^6 cells/well in a 6-well plate, and after 3 h, the non-adherent cells were removed and cryopreserved for future incubation with mature autologous DCs. Differentiation of the adherent cells into dendritic cells was induced by GM-CSF (100 ng/mL, #300-03, PeproTech, Rocky Hill, NJ, USA) and IL-4 (100 ng/mL; #200-04, PeproTech, USA), with replenishment every 2 days. On day 5, maturation of DCs was induced using 100 ng/mL LPS (#L4516, Sigma-Aldrich, St. Louis, MO, USA), and maturation was checked on day 8 by flow cytometry (BD FACSCelesta™) using markers for anti-human HLA-DR, anti-human CD80, and anti-human CD86. Then, mature DCs (1 × 10^5) were pulsed with each 10 μg /mL individual peptide or no peptides (control) for 2 h at 37 °C. Next, peptide-pulsed DCs were used to prime the previously cryopreserved autologous peripheral blood lymphocytes (PBLs) at a DC/PBL ratio of 1:10 using complete RPMI-1640 media supplemented with 100 IU/mL rhIL-2 (#200-02, PeproTech, USA) and 10 ng/mL rhIL-7 (#200-07, PeproTech, USA). Half of the feeding medium was replenished every 2 days. After 7 days, PBLs were restimulated with freshly pulsed autologous DCs every 7 days.
When target cells were peptide-pulsed T2A2 cells (MUT peptide or its corresponding WT peptide), peptide-specific T cells (from HLA-A2^+ healthy donors B–F) stimulated by MUT peptides were co-cultured with these cells in the presence of BFA for 5 h. Then T cells were marked by anti-human CD3 and anti-human CD8α monoclonal antibody. Thirty minutes later, cells were fixed by fixation buffer (Thermo Scientific, Waltham, MA, USA) for thirty minutes and washed by permeabilization buffer (Thermo Scientific, USA). Permeabilized T cells were marked by anti-human IFN-γ monoclonal antibody.

The subject of data set [3] is peptide-pulsed T2A2 cells. The experiment in a line: Cytotoxicity assay of peptide-induced T cells from donor PBMCs. The data set is classed as cell-based, human. Conditions: donors B–F; E/T 12.5:1, 25:1, 50:1; T2A2 loaded with 50 μg/mL peptide. The protocol:
as §1
The cytotoxicity of peptide-specific T cells stimulated by mutant peptides was tested by using Cell Trace Far Red (Thermo Scientific, USA). Transfected cells were suspended in PBS (1 × 10^6 cells/mL) and labelled with Cell Trace Far Red as follows: Control target cells and test target cells were marked by 50 μM and 1 mM Cell Trace Far Red, respectively, at 37 °C for 20 min, protected from light. After incubation, target cells were washed with complete media at 37 °C for 5 min. […] Subsequently, test target cells were mixed with control target cells in a tube, washed once, and analyzed by flow cytometry. Specific lysis (%) = (numbers of control target cells—numbers of test target cells)/numbers of control target cells × 100% [28, 29], where, for tumor cells, the control target cells refer to KYSE140-WT cells marked with 50 μM Cell Trace Far Red, and the test target cell refers to KYSE140-WT or KYSE140-MUT cells marked with 1 mM Cell Trace Far Red, respectively (peptide-specific T cells generated from donors G–K’s PBMCs in vitro or generated from spleen lymphocytes of HLA-A2.1/K^b Tg mice in vivo). Additionally, for T2A2 target cells, T2A2 cells unpulsed and marked with 50 μM Cell Trace Far Red were used as the control target cells, while T2A2 cells loaded with MUT peptides or the corresponding WT peptides (50 μg/mL) or T2A2 cells only were marked with 1 mM Cell Trace Far Red and were used as test target cells (peptide-specific T cells stimulated from donors B–F’s PBMCs).

With TILEELNVV [SYNE1-N4342I], at HLA-A*0201 molecule, the “FI (fluorescence index)” value is 1.81. Moreover, the “DC50 (dissociation complex 50)” value in data set [1] is less than 4 h. Consider VISDYKYKV [NEB-D3282V], for which the “FI (fluorescence index)” value at HLA-A*0201 molecule is given as 0.09. In the case of ALPQHLIRV [TP53-P190L], the “FI (fluorescence index)” value on HLA-A*0201 molecule was determined as 1.26. In data set [2], the “IFN-γ release of MUT peptide-induced T cells, MUT versus WT peptide-loaded T2A2 cells” value is “cannot effectively distinguish T2A2 cells loaded with WT or MUT peptides”. Moreover, the “DC50 (dissociation complex 50)” value in data set [1] is on record as greater than 4 h. Moreover, the “lysis cytotoxicity of MUT peptide-induced T cells on T2A2 cells” value (from here on “lysis cytotoxicity”) in data set [3] is “strong cytotoxicity activity”. With TMPVVSSEV [MUC17-A2414V], the “FI (fluorescence index)” value on HLA-A*0201 molecule was determined as 1.54. Further, the “DC50 (dissociation complex 50)” value in data set [1] is less than 4 h. For the sequence GLPNDDLYI [DNAH5-S3587Y], the “FI (fluorescence index)” value on HLA-A*0201 molecule was 0.68. Take ILWRQDTDL [NFE2L2-I28T]: the “FI (fluorescence index)” value at HLA-A*0201 molecule was 0.79. Take SMGDALDSI [MUC16-A4579D]: the “FI (fluorescence index)” value on HLA-A*0201 molecule is 1.35. Further, the “DC50 (dissociation complex 50)” value in data set [1] was less than 2 h. Take RMQRVLSHV [DNAH5-L4406H]: the “FI (fluorescence index)” value on HLA-A*0201 molecule was 0.30. For the sequence FLIQTEQKL [SYNE1-V7402I], on HLA-A*0201 molecule, the “FI (fluorescence index)” value amounted to 1.27. Moreover, in data set [2], the “IFN-γ release of MUT peptide-induced T cells, MUT versus WT peptide-loaded T2A2 cells” value is “cannot effectively distinguish T2A2 cells loaded with WT or MUT peptides”. Besides, the “DC50 (dissociation complex 50)” value in data set [1] is greater than 6 h. Moreover, in data set [3], the “lysis cytotoxicity” value is on record as “strong cytotoxicity activity”. Turning to NLHSINDFL [ABCA13-D1303H], on HLA-A*0201 molecule, the “FI (fluorescence index)” value was found to be 0.24. In the case of RMHDVTTPL [NOTCH1-G1995V], on HLA-A*0201 molecule, the “FI (fluorescence index)” value was found to be 0.42. TLTATVNIV [PCDH15-S628L]: at HLA-A*0201 molecule, the “FI (fluorescence index)” value is 0.43. Turning to FMNELMDII [DNAH5-D4110N], at HLA-A*0201 molecule, the “FI (fluorescence index)” value amounted to 0.38.

In the case of YLPDHHEEL [SYNE1-S7628Y], the “FI (fluorescence index)” value at HLA-A*0201 molecule is given as 1.67. Moreover, the “DC50 (dissociation complex 50)” value in data set [1] is less than 2 h.

For the sequence FLTATRQEI [DNAH5-M4495T], the “FI (fluorescence index)” value at HLA-A*0201 molecule is reported as 0.21.

Turning to QLQAQLQGV [KMT2D-R4198Q], the “FI (fluorescence index)” value on HLA-A*0201 molecule was 1.12. Besides, the “DC50 (dissociation complex 50)” value in data set [1] is recorded as less than 2 h. GMLSPVDFL [NOTCH1-S2202F]: the “FI (fluorescence index)” value at HLA-A*0201 molecule is 0.13. Take VLDDSETTI [MUC16-A9832D]: the “FI (fluorescence index)” value on HLA-A*0201 molecule is listed as 3.56. Besides, the “IFN-γ release of MUT peptide-induced T cells, MUT versus WT peptide-loaded T2A2 cells” value in data set [2] is reported as “cannot effectively distinguish T2A2 cells loaded with WT or MUT peptides”. For the same sequence, in data set [1], the “DC50 (dissociation complex 50)” value is greater than 6 h. Besides, the “lysis cytotoxicity” value in data set [3] was “strong cytotoxicity activity”. As to ALNKMFFQL [TP53-C135F], the “FI (fluorescence index)” value at HLA-A*0201 molecule was found to be 0.12.

Consider CLRDYQPFL [LRP2-D1744Y], for which the “FI (fluorescence index)” value at HLA-A*0201 molecule was determined as 0.20. For the sequence GLFQCGTGL [LRP1B-R3362L], on HLA-A*0201 molecule, the “FI (fluorescence index)” value worked out at 0.09. As for ALDMCVKFL [LRP1B-P3707L], the “FI (fluorescence index)” value at HLA-A*0201 molecule is listed as 0.37. The same measure, in the same setting: the figure for KLLSLLEVL [SYNE1-A65S] is 0.08; for LLGRNSFEL [TP53-V272L] it is 0.53. On to TMSERSTLL [MUC17-T3809M], for which the “FI (fluorescence index)” value at HLA-A*0201 molecule is given as 0.12. In the case of LMSRIPHDV [MUC16-Q5024H], the “FI (fluorescence index)” value on HLA-A*0201 molecule was 0.14. Turning to ILGEEAPRL [KMT2D-F4722L], the “FI (fluorescence index)” value on HLA-A*0201 molecule came out at 0.29. Regarding SIPSFPLPV [MUC16-S5361F], the “FI (fluorescence index)” value on HLA-A*0201 molecule is given as 2.25. Also, the “DC50 (dissociation complex 50)” value in data set [1] is listed as less than 2 h. As for LLARNSFEV [TP53-G266A], the “FI (fluorescence index)” value at HLA-A*0201 molecule was found to be 0.16. Consider YLLTPNGRV [LRP1B-C2479Y], for which the “FI (fluorescence index)” value at HLA-A*0201 molecule came out at 0.39.

Consider ILQDGFLYV [ABCA13-E1359Q], for which, at HLA-A*0201 molecule, the “FI (fluorescence index)” value stood at 1.56. Moreover, the “IFN-γ release of MUT peptide-induced T cells, MUT versus WT peptide-loaded T2A2 cells” value in data set [2] is listed as “cannot effectively distinguish T2A2 cells loaded with WT or MUT peptides”. In addition, the “DC50 (dissociation complex 50)” value in data set [1] is listed as greater than 6 h. Also, in data set [3], the “lysis cytotoxicity” value is listed as “strong cytotoxicity activity”.

Regarding “ILIGETIKI [COX-2 321–329, reference compound]”, the “FI (fluorescence index)” value with HLA-A*0201 molecule turned out to be 2.12. In addition, in data set [1], the “DC50 (dissociation complex 50)” value is reported as greater than 6 h. As for YMCNSSCMV [TP53-G244V], the “FI (fluorescence index)” value on HLA-A*0201 molecule worked out at 0.49.
